Tests used:
Nischarin [1] = molecular target: T1, Nischarin (Rattus norvegicus, UniProt Q4G017); test: Displacement of [3H]clonidine from imidazoline I1 receptor in Sprague-Dawley rat kidney by liquid scintillation counting
[2] = Displacement of [3H]2BFI from imidazoline I2 receptor in Sprague-Dawley rat brain by liquid scintillation counting
[3] = molecular target: T2, Adrenergic receptor alpha-2 (Rattus norvegicus, UniProt P22086+P19328+P22909); test: Displacement of [3H]RX821002 from alpha2 adrenoceptor in Sprague-Dawley rat kidney by liquid scintillation counting; format: tissue-based
T2 sequence (P22086 whole entry): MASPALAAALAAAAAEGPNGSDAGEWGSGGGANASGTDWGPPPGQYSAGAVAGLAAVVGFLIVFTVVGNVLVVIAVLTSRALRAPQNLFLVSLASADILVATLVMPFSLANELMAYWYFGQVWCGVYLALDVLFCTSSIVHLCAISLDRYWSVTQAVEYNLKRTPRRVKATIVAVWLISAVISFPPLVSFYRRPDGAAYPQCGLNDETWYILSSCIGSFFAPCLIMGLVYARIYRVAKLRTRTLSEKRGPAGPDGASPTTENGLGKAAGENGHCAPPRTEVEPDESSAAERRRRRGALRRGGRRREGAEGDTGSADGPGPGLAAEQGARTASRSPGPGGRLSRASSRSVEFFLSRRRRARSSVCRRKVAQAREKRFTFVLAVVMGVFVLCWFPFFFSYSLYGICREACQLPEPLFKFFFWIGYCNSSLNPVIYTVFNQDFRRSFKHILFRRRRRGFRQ
T2 sequence (P19328 whole entry): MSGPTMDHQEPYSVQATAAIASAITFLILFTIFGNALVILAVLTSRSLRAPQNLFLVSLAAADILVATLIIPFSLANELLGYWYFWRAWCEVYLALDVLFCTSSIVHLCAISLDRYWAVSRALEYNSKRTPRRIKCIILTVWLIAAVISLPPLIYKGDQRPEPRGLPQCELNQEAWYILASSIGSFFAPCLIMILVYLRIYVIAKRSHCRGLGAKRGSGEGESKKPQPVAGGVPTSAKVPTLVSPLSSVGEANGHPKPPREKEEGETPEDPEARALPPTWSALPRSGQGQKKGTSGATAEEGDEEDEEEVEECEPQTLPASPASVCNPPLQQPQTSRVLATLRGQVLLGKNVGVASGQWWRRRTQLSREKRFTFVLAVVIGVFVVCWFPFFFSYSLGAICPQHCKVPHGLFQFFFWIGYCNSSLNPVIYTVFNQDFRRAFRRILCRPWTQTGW
T2 sequence (P22909 whole entry): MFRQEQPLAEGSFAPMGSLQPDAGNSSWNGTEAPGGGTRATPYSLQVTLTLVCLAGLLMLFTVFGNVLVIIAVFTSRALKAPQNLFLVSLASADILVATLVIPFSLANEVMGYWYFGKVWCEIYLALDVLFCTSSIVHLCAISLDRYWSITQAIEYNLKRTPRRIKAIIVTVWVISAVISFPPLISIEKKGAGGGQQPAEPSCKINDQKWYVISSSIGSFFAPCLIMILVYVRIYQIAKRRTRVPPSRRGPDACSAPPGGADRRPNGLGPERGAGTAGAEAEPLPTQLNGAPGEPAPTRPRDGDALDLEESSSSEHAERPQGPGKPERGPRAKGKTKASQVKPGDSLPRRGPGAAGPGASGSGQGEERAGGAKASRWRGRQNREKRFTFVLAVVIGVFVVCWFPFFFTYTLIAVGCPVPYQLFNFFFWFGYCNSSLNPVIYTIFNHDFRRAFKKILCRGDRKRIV

Nischarin [4] = molecular target: T1, Nischarin; test: Displacement of [3H]clonidine from imidazoline I1 receptor in Wistar rat kidney by liquid scintillation counting
[5] = Displacement of [3H]2BFI from imidazoline I2 receptor in Wistar rat brain by liquid scintillation counting
[6] = molecular target: T2, Adrenergic receptor alpha-2; test: Displacement of [3H]RX821002 from alpha2 adrenoceptor in Wistar rat kidney by liquid scintillation counting; format: tissue-based

T1 sequence (Q4G017 whole entry): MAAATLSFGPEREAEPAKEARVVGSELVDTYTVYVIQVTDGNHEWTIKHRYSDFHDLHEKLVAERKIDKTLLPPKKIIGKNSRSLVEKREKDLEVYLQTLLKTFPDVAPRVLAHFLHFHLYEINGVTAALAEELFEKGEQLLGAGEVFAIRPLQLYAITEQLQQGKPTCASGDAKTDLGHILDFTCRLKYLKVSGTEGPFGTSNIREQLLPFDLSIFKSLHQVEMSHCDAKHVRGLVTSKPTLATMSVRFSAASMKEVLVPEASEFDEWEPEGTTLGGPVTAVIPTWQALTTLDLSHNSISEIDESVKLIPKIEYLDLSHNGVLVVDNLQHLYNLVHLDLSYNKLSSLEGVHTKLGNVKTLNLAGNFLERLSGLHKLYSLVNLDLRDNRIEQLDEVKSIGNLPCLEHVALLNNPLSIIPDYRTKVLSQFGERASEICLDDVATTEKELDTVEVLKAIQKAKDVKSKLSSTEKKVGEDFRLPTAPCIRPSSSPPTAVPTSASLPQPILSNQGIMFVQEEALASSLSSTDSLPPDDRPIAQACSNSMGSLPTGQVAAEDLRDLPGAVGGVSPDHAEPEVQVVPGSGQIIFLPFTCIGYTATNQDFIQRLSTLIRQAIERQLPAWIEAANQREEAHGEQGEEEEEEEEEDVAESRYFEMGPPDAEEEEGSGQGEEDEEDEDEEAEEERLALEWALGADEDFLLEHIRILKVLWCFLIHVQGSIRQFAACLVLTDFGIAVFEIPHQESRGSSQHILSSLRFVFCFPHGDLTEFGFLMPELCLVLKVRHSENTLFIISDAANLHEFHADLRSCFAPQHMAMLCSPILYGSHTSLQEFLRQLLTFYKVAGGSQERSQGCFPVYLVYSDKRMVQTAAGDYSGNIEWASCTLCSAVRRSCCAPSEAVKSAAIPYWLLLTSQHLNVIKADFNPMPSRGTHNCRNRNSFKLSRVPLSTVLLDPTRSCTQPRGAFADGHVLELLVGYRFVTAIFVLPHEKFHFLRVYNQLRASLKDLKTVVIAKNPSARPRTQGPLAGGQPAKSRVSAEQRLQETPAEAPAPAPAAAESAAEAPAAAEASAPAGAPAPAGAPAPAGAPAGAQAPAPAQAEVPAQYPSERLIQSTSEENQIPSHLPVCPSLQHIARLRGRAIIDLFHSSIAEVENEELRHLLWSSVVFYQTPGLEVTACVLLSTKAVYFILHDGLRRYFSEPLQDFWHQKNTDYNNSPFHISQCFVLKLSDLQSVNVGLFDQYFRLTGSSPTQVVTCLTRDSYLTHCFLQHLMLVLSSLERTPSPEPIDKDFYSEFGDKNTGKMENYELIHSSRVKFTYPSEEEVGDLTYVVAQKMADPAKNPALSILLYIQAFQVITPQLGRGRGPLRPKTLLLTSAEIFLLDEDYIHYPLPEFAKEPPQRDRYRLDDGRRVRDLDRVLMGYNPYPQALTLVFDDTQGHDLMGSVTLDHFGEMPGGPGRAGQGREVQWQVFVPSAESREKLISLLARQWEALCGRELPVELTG

For `CN(C)CC[C@H]1CN=CN1.Cl.Cl`, the IC50 (Nischarin [1]) was 64 µM, the Ki [2] was over 100 µM and the Ki [3] was over 100 µM.
`Br.NCC[C@@H]1CN=C(N)N1` showed an IC50 (Nischarin [1]) of over 100 µM, a Ki [2] of over 100 µM and a Ki [3] of 18.82 µM.
Work on `Br.CC1=NC[C@H](CCN)N1` yielded an IC50 (Nischarin [1]) of 115 µM, a Ki [2] of 1.84 µM and a Ki [3] of 76.44 µM.
Work on `Br.CC(=O)NCC[C@@H]1CN=C(N)N1` yielded an IC50 (Nischarin [1]) of 383 µM, a Ki [2] of over 100 µM and a Ki [3] of over 100 µM.
In the case of `CC(=O)NCC[C@H]1CN=CN1.CC(=O)O`, the IC50 (Nischarin [1]) is reported as 213 µM, the Ki [2] is reported as over 100 µM and the Ki [3] is reported as over 100 µM.
`Br.NCC[C@H]1CN=C(N)N1` gave an IC50 (Nischarin [1]) of 0.477 µM, a Ki [2] of 55 µM and a Ki [3] of 11.77 µM.
In the case of `Br.NCC[C@@H]1CN=CN1`, the IC50 (Nischarin [1]) is reported as 16.5 µM, the Ki [2] is reported as over 100 µM and the Ki [3] is reported as 62.07 µM.
Work on `Br.CN(C)CC[C@H]1CN=C(N)N1` yielded an IC50 (Nischarin [1]) of 44.8 µM, a Ki [2] of over 100 µM and a Ki [3] of over 52.86 µM.
`Br.NCC[C@H]1CN=CN1` showed an IC50 (Nischarin [1]) of over 100 µM, a Ki [2] of 65.8 µM and a Ki [3] of over 100 µM.
With `Br.CC(=O)NCC[C@H]1CN=C(N)N1` the IC50 (Nischarin [1]) was 235 µM, the Ki [2] was over 100 µM and the Ki [3] was over 100 µM.
With `NCCCCN=C(N)N` [AGMATINE] the IC50 (Nischarin [4]) was 36.5 µM, the Ki [5] was 417 µM and the Ki [6] was 31.7 µM.
`Clc1cccc(Cl)c1NC1=NCCN1` [CLONIDINE] gave an IC50 (Nischarin [1]) of 0.366 µM and a Ki [2] of 0.364 µM.
